Test: xn = mol fraction of the nth substance listed
Conditions: 100 kPa, Liquid, Vibrating tube method

CCC(C)(C)O [2-methylbutan-2-ol] + O
mass density [kg/m3]
Conditions	x1 = 0.00122	x1 = 0.00255	x1 = 0.00412	x1 = 0.00507	x1 = 0.00607	x1 = 0.0079	x1 = 0.00994	x1 = 0.01252	x1 = 0.01488	x1 = 1
273.65 K	999.033	998.16	997.224	996.687	996.151	995.216	994.277	993.23	992.364	826.7
274.15 K	999.058	998.181	997.247	996.703	996.17	995.235	994.284	993.232	992.356	826.3
274.65 K	999.08	998.206	997.266	996.721	996.184	995.25	994.296	993.233	992.353	825.8
275.15 K	999.099	998.222	997.286	996.74	996.2	995.262	994.3	993.231	992.341	825.4
275.65 K	999.114	998.237	997.295	996.749	996.207	995.267	994.301	993.227	992.328	824.9
276.15 K	999.13	998.247	997.305	996.76	996.213	995.266	994.297	993.215	992.313	824.5
276.65 K	999.132	998.253	997.309	996.765	996.216	995.269	994.293	993.203	992.291	824
277.15 K	999.134	998.251	997.307	996.759	996.215	995.258	994.279	993.181	992.265	823.5
277.65 K	999.129	998.246	997.299	996.748	996.2	995.243	994.261	993.157	992.23	823.1
278.15 K	999.126	998.235	997.295	996.741	996.193	995.233	994.246	993.13	992.197	822.6
278.65 K	999.113	998.23	997.279	996.728	996.177	995.217	994.22	993.102	992.159	822.2
279.15 K	999.102	998.216	997.265	996.713	996.158	995.193	994.199	993.072	992.123	821.7
279.65 K	999.075	998.186	997.235	996.681	996.124	995.158	994.162	993.023	992.067	821.3
280.15 K	999.056	998.17	997.213	996.659	996.101	995.132	994.13	992.984	992.025	820.8
280.65 K	999.032	998.146	997.189	996.631	996.074	995.095	994.093	992.943	991.972	820.3
281.15 K	999.006	998.115	997.154	996.599	996.039	995.06	994.049	992.894	991.918	819.9
281.65 K	998.97	998.079	997.123	996.561	996	995.021	994.007	992.846	991.86	819.4
282.15 K	998.939	998.044	997.086	996.522	995.962	994.976	993.958	992.79	991.8	819

CCC(O)CC [3-pentanol] + O
mass density [kg/m3]
Conditions	x1 = 0.00117	x1 = 0.00216	x1 = 0.00361	x1 = 0.00517	x1 = 0.00616	x1 = 0.00773	x1 = 0.00866	x1 = 1
273.65 K	999.121	998.483	997.636	996.791	996.228	995.539	995.114	835.7
274.15 K	999.145	998.504	997.655	996.809	996.243	995.55	995.121	835.3
274.65 K	999.166	998.525	997.681	996.827	996.257	995.562	995.131	834.9
275.15 K	999.182	998.545	997.694	996.837	996.27	995.568	995.137	834.5
275.65 K	999.2	998.559	997.704	996.842	996.271	995.572	995.134	834.1
276.15 K	999.21	998.568	997.714	996.849	996.277	995.571	995.134	833.7
276.65 K	999.216	998.574	997.718	996.852	996.271	995.565	995.128	833.3
277.15 K	999.214	998.574	997.712	996.843	996.263	995.555	995.116	832.9
277.65 K	999.21	998.562	997.704	996.832	996.251	995.537	995.092	832.5
278.15 K	999.206	998.556	997.698	996.822	996.238	995.523	995.08	832.1
278.65 K	999.194	998.549	997.686	996.805	996.219	995.503	995.05	831.7
279.15 K	999.182	998.533	997.668	996.789	996.197	995.475	995.023	831.3
279.65 K	999.159	998.5	997.635	996.752	996.159	995.434	994.98	830.9
280.15 K	999.14	998.48	997.609	996.729	996.134	995.406	994.948	830.5
280.65 K	999.119	998.457	997.582	996.698	996.103	995.368	994.912	830.1
281.15 K	999.084	998.424	997.551	996.663	996.061	995.327	994.867	829.7
281.65 K	999.053	998.388	997.515	996.619	996.024	995.286	994.819	829.3
282.15 K	999.017	998.353	997.476	996.581	995.981	995.24	994.77	828.9
